Results as given in ChEMBL document CHEMBL1201862, “PubChem BioAssay data set” (2004).
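Briefly, cells in 96-well plates were exposed to five compound concentrations for 48 h, and endpoints were estimated by linear interpolation. GI50 = concentration required for 50% inhibition of growth.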 Active and inactive are the calls of the source. No stated cut-off is given here; in the data, active = GI50 up to about 1.1 µM and inactive = higher.

Legend:
Test in all cases: growth of human tumour cells (NCI), 48 h
T47D = test system: T47D
M14 = test system: M14
DU-145 = test system: DU-145
BT-549 = test system: BT-549
HOP-92 = test system: HOP-92
U-251 = test system: U-251
IGROV-1 = test system: IGROV-1
MDA-MB-231 = test system: MDA-MB-231
OVCAR-8 = test system: OVCAR-8
SW-620 = test system: SW-620
786-0 = test system: 786-0
COLO 205 = test system: COLO 205
OVCAR-5 = test system: OVCAR-5
NCI/ADR-RES = test system: NCI/ADR-RES
SN12C = test system: SN12C
NCI-H23 = test system: NCI-H23
HOP-62 = test system: HOP-62
SK-MEL-2 = test system: SK-MEL-2
A498 = test system: A498
NCI-H460 = test system: NCI-H460

Measured: GI50

Cc1ncc(CO)c(/C=N/CCCCCC/N=C/c2c(CO)cnc(C)c2[O-])c1[O-].[Mg+2]
inactive: T47D > 100 µM | M14 > 100 µM | DU-145 > 100 µM | BT-549 > 100 µM | HOP-92 > 44.6 µM | U-251 > 100 µM | IGROV-1 > 100 µM | MDA-MB-231 > 100 µM | OVCAR-8 > 67.9 µM | SW-620 > 100 µM | 786-0 > 100 µM | COLO 205 > 100 µM | OVCAR-5 > 100 µM | NCI/ADR-RES > 100 µM | SN12C > 100 µM | NCI-H23 > 100 µM | HOP-62 > 100 µM | SK-MEL-2 > 100 µM | A498 > 100 µM | NCI-H460 > 100 µM

COC(=O)[C@H](Cc1ccccc1)NC(=O)NCCN(CCNC(=O)N[C@@H](Cc1ccccc1)C(=O)OC)C(=O)N[C@@H](Cc1ccccc1)C(=O)OC
inactive: T47D 22.6 µM | M14 25.6 µM | DU-145 21.1 µM | BT-549 18.9 µM | HOP-92 35.4 µM | U-251 21.8 µM | MDA-MB-231 23.7 µM | OVCAR-8 18.3 µM | SW-620 22.8 µM | 786-0 19.5 µM | COLO 205 21.9 µM | OVCAR-5 20.4 µM | NCI/ADR-RES > 100 µM | SN12C > 10 µM | NCI-H23 18.9 µM | HOP-62 20.7 µM | SK-MEL-2 21.8 µM | A498 32.9 µM | NCI-H460 18.8 µM

CC(=O)NCC1OC2COC(c3ccccc3)OC2C(NC(=O)c2ccccc2)C1OC(=O)c1ccccc1 (configuration not stated)
inactive: T47D 34.5 µM | M14 > 100 µM | DU-145 > 100 µM | BT-549 > 100 µM | HOP-92 > 100 µM | U-251 > 100 µM | MDA-MB-231 > 100 µM | OVCAR-8 > 100 µM | SW-620 > 100 µM | 786-0 > 100 µM | COLO 205 > 100 µM | OVCAR-5 > 100 µM | NCI/ADR-RES > 100 µM | SN12C 60.3 µM | NCI-H23 > 100 µM | HOP-62 > 100 µM | SK-MEL-2 > 100 µM | A498 44.5 µM | NCI-H460 > 100 µM

CCOC(=O)C(=O)NNc1nc2c(s1)C(=O)c1ccccc1C2=O
inactive: T47D 17.8 µM | M14 2.08 µM | DU-145 17.7 µM | BT-549 10.9 µM | HOP-92 10.5 µM | U-251 7.06 µM | IGROV-1 5.56 µM | MDA-MB-231 2.48 µM | OVCAR-8 1.97 µM | SW-620 2.58 µM | 786-0 10.6 µM | COLO 205 12.4 µM | OVCAR-5 9.35 µM | NCI/ADR-RES 1.87 µM | SN12C 1.87 µM | NCI-H23 2.24 µM | HOP-62 10.8 µM | SK-MEL-2 3.95 µM | A498 22.8 µM | NCI-H460 10.7 µM

O=C1Nc2ccccc2S/C1=C\c1ccc(C(F)(F)F)cc1
inactive: T47D > 100 µM | M14 > 100 µM | DU-145 > 100 µM | BT-549 > 100 µM | HOP-92 > 100 µM | U-251 > 100 µM | IGROV-1 > 100 µM | MDA-MB-231 > 100 µM | OVCAR-8 > 100 µM | SW-620 > 100 µM | 786-0 > 100 µM | COLO 205 > 100 µM | OVCAR-5 > 100 µM | NCI/ADR-RES > 100 µM | SN12C > 100 µM | HOP-62 > 100 µM | SK-MEL-2 > 100 µM | A498 > 100 µM | NCI-H460 > 100 µM

N[C@H]1c2c(Br)sc(Br)c2C(=O)[C@H]1O
inactive: T47D 21.9 µM | M14 8.69 µM | DU-145 20.3 µM | BT-549 6.3 µM | HOP-92 21.5 µM | U-251 14.4 µM | IGROV-1 14 µM | MDA-MB-231 18.7 µM | OVCAR-8 12.9 µM | SW-620 6.41 µM | 786-0 18.6 µM | COLO 205 6.18 µM | OVCAR-5 22 µM | NCI/ADR-RES 16 µM | SN12C 1.56 µM | NCI-H23 3.64 µM | HOP-62 18.2 µM | SK-MEL-2 23.9 µM | A498 > 100 µM | NCI-H460 19.2 µM

COC(=NCCC1=CCCCC1)OC
inactive: T47D 32.9 µM | M14 21.1 µM | DU-145 > 100 µM | BT-549 > 100 µM | HOP-92 31.6 µM | U-251 71.3 µM | IGROV-1 32.8 µM | MDA-MB-231 > 100 µM | OVCAR-8 75.7 µM | SW-620 62.8 µM | 786-0 81.3 µM | COLO 205 16.3 µM | OVCAR-5 51.3 µM | NCI/ADR-RES 58.9 µM | NCI-H23 58.6 µM | HOP-62 > 100 µM | SK-MEL-2 87.7 µM | A498 > 100 µM | NCI-H460 57.1 µM

Cc1ccc(S(=O)(=O)C2=C([Si](C)(C)C)C3CC2[C@@H]2C4C=CC(CC4)[C@H]32)cc1 (some centres not stated)
inactive: T47D 37.9 µM | M14 > 100 µM | DU-145 > 100 µM | BT-549 > 100 µM | HOP-92 60.7 µM | U-251 23.9 µM | IGROV-1 85.5 µM | MDA-MB-231 26.5 µM | OVCAR-8 > 100 µM | SW-620 > 100 µM | 786-0 34.6 µM | COLO 205 > 100 µM | OVCAR-5 > 100 µM | NCI/ADR-RES > 100 µM | SN12C > 100 µM | HOP-62 40.8 µM | SK-MEL-2 23.3 µM | A498 > 100 µM | NCI-H460 86.1 µM

COC(=O)[C@](NC(=O)OCc1ccccc1)([C@@H](C)[S+]([O-])c1ccc(C)cc1)C(F)(F)F (some centres not stated)
inactive: T47D 35.8 µM | M14 48.2 µM | DU-145 38.2 µM | BT-549 22.4 µM | HOP-92 26.9 µM | U-251 36.8 µM | IGROV-1 24.6 µM | MDA-MB-231 59.6 µM | OVCAR-8 35.2 µM | SW-620 53.2 µM | 786-0 52.2 µM | COLO 205 25.8 µM | OVCAR-5 > 100 µM | NCI/ADR-RES 28.7 µM | NCI-H23 32.1 µM | HOP-62 > 100 µM | SK-MEL-2 19.5 µM | A498 31.4 µM | NCI-H460 29 µM

O=C(Nc1ccccc1)c1cc2c(cc1Cl)SC(NNCCO)=NS2(=O)=O
inactive: T47D > 100 µM | M14 > 100 µM | DU-145 > 100 µM | BT-549 > 100 µM | HOP-92 > 100 µM | U-251 > 100 µM | IGROV-1 > 100 µM | MDA-MB-231 > 100 µM | OVCAR-8 > 100 µM | SW-620 > 100 µM | 786-0 > 100 µM | COLO 205 > 100 µM | NCI/ADR-RES > 100 µM | NCI-H23 > 100 µM | HOP-62 > 100 µM | SK-MEL-2 > 100 µM | A498 > 100 µM | NCI-H460 > 100 µM
